From PMC5121526, “Chemerin Elicits Potent Constrictor Actions via Chemokine‐Like Receptor 1 (CMKLR1), not G‐Protein‐Coupled Receptor 1 (GPR1), in Human and Rat Vasculature” (Journal of the American Heart Association: Cardiovascular …, 2016)
Ends that are not written are not given here.

How the values were obtained:
Type in all cases: cell-based
human CMKLR1 [1] = target: T1, human CMKLR1 (Homo sapiens, UniProt Q99788); assay: β‐Arrestin recruitment at CMKLR1
T1 construct: host or cells: CHO-K1
T1 sequence (Q99788 1-373): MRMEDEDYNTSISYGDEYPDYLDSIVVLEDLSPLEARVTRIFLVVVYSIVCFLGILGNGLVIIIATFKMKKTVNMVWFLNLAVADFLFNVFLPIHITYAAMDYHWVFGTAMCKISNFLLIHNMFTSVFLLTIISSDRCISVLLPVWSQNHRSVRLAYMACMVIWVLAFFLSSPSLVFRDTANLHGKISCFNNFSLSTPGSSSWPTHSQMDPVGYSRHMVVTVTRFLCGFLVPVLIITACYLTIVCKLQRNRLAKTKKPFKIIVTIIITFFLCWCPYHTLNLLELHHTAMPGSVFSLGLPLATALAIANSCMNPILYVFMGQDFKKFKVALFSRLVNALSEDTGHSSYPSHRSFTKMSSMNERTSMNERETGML
Experimental: (§1) β‐Arrestin recruitment (CMKLR1 and GPR1) and cAMP assays (CMKLR1; DiscoverX, Fremont, CA) were carried out with CHO‐K1 cells expressing either human CMKLR1 or GPR1, according to the manufacturer's instructions. […] Data were subsequently normalized to the maximum response to C13 used as the reference agonists in each assay.

human GPR1 = target: T2, human GPR1 (Homo sapiens, UniProt P46091); assay: β‐Arrestin recruitment at GPR1
T2 construct: host or cells: CHO-K1
T2 sequence (P46091 1-355): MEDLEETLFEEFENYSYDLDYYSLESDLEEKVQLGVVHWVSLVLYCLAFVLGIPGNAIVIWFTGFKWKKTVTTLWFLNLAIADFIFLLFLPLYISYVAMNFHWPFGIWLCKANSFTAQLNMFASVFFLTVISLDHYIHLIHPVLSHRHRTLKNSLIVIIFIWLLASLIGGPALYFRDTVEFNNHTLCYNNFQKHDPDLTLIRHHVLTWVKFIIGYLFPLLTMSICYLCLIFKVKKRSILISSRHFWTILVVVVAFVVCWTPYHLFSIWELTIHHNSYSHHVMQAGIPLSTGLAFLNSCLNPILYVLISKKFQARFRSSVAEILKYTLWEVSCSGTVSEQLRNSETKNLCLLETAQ
Experimental: as §1

human CMKLR1 [2] = target: T1, human CMKLR1; assay: cAMP inhibition at CMKLR1; settings: inhibition of forskolin‐evoked cAMP accumulation, CHO‐K1 cells, n: Chemerin 3, C9 4, C13 3, mean±SEM
Experimental: as §1

Row | pD2 (human CMKLR1 [1]; β‐arrestin recruitment, CHO‐K1 cells, CMKLR1, n: Chemerin 3, C9 3, C13 6, mean±SEM) | pD2 (human GPR1; β‐arrestin recruitment, CHO‐K1 cells, GPR1, n: Chemerin 3, C9 7, C13 9, mean±SEM) | pD2 (human CMKLR1 [2]) | Substance | EC50 (human CMKLR1 [1]) | Emax (human CMKLR1 [1]) | EC50 (human GPR1) | Emax (human GPR1) | EC50 (human CMKLR1 [2]; read-out: pD2 (converted))
1 | 9.37±0.05 | 9.05±0.09 | 8.45±0.10 | Chemerin: Human recombinant chemerin(21–157) purchased from R&D Systems | – | – | – | – | –
2 | – | – | – | PHSFYFPGQFAFS [C13] | 70.8 nM | 94 ± 2% | 2.24 nM | 97 ± 3% | 0.759 nM
